Read-outs that look alike come from different tables or passages of the source.
Test system: Bursaphelenchus xylophilus
Format: in vivo
Conditions: 24 hours

Row | SMILES | effect of killing nematodes (control area: methyl iodide as is, injected through injection syringe, 96 g/m^3, 10° C.) [%] | effect of killing nematodes (control area: sulfuryl fluoride alone, 50 g/m^3, 15° C.) [%]
1 | CI [methyl iodide] | 98 | 
2 | O=S(=O)(F)F [sulfuryl fluoride] |  | 89

From patent US20090018215A1, “Fumigant for wood parasitic nematodes and wood fumigation method” (priority 2004, published 2009)
